Results taken from PubChem BioAssay (NCI).
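96-well plates; 48 h exposure; 5 concentrations. Endpoints by linear interpolation between flanking doses. Not reached: highest tested concentration assigned. At the GI50, growth is halved. Definition used: TGI = concentration required for complete inhibition of growth.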

Experiments:
Experiment in all cases: DTP human tumour cell line panel, 48 h
HL-60(TB) leukemia = tested on: HL-60(TB) leukemia
NCI-H226 lung = tested on: NCI-H226 lung
NCI-H522 lung = tested on: NCI-H522 lung
UACC-257 melanoma = tested on: UACC-257 melanoma
MDA-MB-435 = tested on: MDA-MB-435
HCT-15 colon = tested on: HCT-15 colon
SF-539 CNS = tested on: SF-539 CNS
HT29 colon = tested on: HT29 colon
CAKI-1 renal = tested on: CAKI-1 renal
SW-620 colon = tested on: SW-620 colon
LOX IMVI melanoma = tested on: LOX IMVI melanoma
SR leukemia = tested on: SR leukemia
NCI/ADR-RES ovarian = tested on: NCI/ADR-RES ovarian
SK-OV-3 ovarian = tested on: SK-OV-3 ovarian
ACHN renal = tested on: ACHN renal
MCF7 breast = tested on: MCF7 breast
OVCAR-3 ovarian = tested on: OVCAR-3 ovarian
BT-549 breast = tested on: BT-549 breast
NCI-H460 lung = tested on: NCI-H460 lung
OVCAR-8 ovarian = tested on: OVCAR-8 ovarian
SF-295 CNS = tested on: SF-295 CNS
CCRF-CEM leukemia = tested on: CCRF-CEM leukemia
SK-MEL-2 melanoma = tested on: SK-MEL-2 melanoma
HCC-2998 colon = tested on: HCC-2998 colon
SN12C renal = tested on: SN12C renal
K-562 leukemia = tested on: K-562 leukemia
A498 renal = tested on: A498 renal
SK-MEL-28 melanoma = tested on: SK-MEL-28 melanoma
786-0 renal = tested on: 786-0 renal
PC-3 prostate = tested on: PC-3 prostate
DU-145 prostate = tested on: DU-145 prostate
KM12 colon = tested on: KM12 colon
OVCAR-5 ovarian = tested on: OVCAR-5 ovarian
MALME-3M melanoma = tested on: MALME-3M melanoma
MOLT-4 leukemia = tested on: MOLT-4 leukemia
OVCAR-4 ovarian = tested on: OVCAR-4 ovarian
SNB-75 CNS = tested on: SNB-75 CNS
TK-10 renal = tested on: TK-10 renal
RPMI-8226 leukemia = tested on: RPMI-8226 leukemia
RXF 393 renal = tested on: RXF 393 renal
U251 CNS = tested on: U251 CNS
M14 melanoma = tested on: M14 melanoma
UO-31 renal = tested on: UO-31 renal
COLO 205 colon = tested on: COLO 205 colon
IGROV1 ovarian = tested on: IGROV1 ovarian
SK-MEL-5 melanoma = tested on: SK-MEL-5 melanoma
MDA-MB-231 breast = tested on: MDA-MB-231 breast
HS 578T breast = tested on: HS 578T breast
HCT-116 colon = tested on: HCT-116 colon
SNB-19 CNS = tested on: SNB-19 CNS
T-47D breast = tested on: T-47D breast
A549 NSCLC = tested on: A549 NSCLC
NCI-H23 lung = tested on: NCI-H23 lung
SF-268 CNS = tested on: SF-268 CNS
HOP-92 NSCLC = tested on: HOP-92 NSCLC
HOP-62 NSCLC = tested on: HOP-62 NSCLC
UACC-62 melanoma = tested on: UACC-62 melanoma
MDA-N = tested on: MDA-N
EKVX NSCLC = tested on: EKVX NSCLC

For `ClCCn1c(CCl)nc2ccc(Cl)cc21`, the GI50 (HL-60(TB) leukemia) was 1890 nM, the TGI (HL-60(TB) leukemia) was 4110 nM and the GI50 (NCI-H226 lung) was 193 nM. The TGI (NCI-H226 lung) was 442 nM, the GI50 (NCI-H522 lung) was 185 nM and the TGI (NCI-H522 lung) was 363 nM. The GI50 (UACC-257 melanoma) was 1620 nM, the TGI (UACC-257 melanoma) was 3490 nM and the GI50 (MDA-MB-435) was 692 nM. For the same molecule, the TGI (MDA-MB-435) was 2120 nM, the GI50 (HCT-15 colon) was 392 nM and the TGI (HCT-15 colon) was 2230 nM. The GI50 (SF-539 CNS) was 1440 nM, the TGI (SF-539 CNS) was 2820 nM and the GI50 (HT29 colon) was 436 nM. It also gave a TGI (HT29 colon) of 1390 nM, a GI50 (CAKI-1 renal) of 1600 nM and a TGI (CAKI-1 renal) of 3200 nM. The GI50 (SW-620 colon) was 289 nM, the TGI (SW-620 colon) was 1110 nM and the GI50 (LOX IMVI melanoma) was 156 nM. It also gave a TGI (LOX IMVI melanoma) of 317 nM, a GI50 (SR leukemia) of 232 nM and a TGI (SR leukemia) of 4320 nM. It also gave a GI50 (NCI/ADR-RES ovarian) of 1210 nM, a TGI (NCI/ADR-RES ovarian) of 4360 nM and a GI50 (SK-OV-3 ovarian) of 305 nM. The TGI (SK-OV-3 ovarian) was 853 nM, the GI50 (ACHN renal) was 1350 nM and the TGI (ACHN renal) was 2720 nM. It also gave a GI50 (MCF7 breast) of 372 nM, a TGI (MCF7 breast) of 2010 nM and a GI50 (OVCAR-3 ovarian) of 1870 nM. For the same molecule, the TGI (OVCAR-3 ovarian) was 3450 nM, the GI50 (BT-549 breast) was 277 nM and the TGI (BT-549 breast) was 753 nM. For the same molecule, the GI50 (NCI-H460 lung) was 955 nM, the TGI (NCI-H460 lung) was 4590 nM and the GI50 (OVCAR-8 ovarian) was 338 nM. The TGI (OVCAR-8 ovarian) was 1600 nM, the GI50 (SF-295 CNS) was 2210 nM and the TGI (SF-295 CNS) was 5500 nM. The GI50 (CCRF-CEM leukemia) was 280 nM, the TGI (CCRF-CEM leukemia) was 1650 nM and the GI50 (SK-MEL-2 melanoma) was 1650 nM. The TGI (SK-MEL-2 melanoma) was 3600 nM, the GI50 (HCC-2998 colon) was 2010 nM and the TGI (HCC-2998 colon) was 3870 nM. For the same molecule, the GI50 (SN12C renal) was 257 nM, the TGI (SN12C renal) was 708 nM and the GI50 (K-562 leukemia) was 340 nM. It also gave a TGI (K-562 leukemia) of 1030 nM, a GI50 (A498 renal) of 2050 nM and a TGI (A498 renal) of 4800 nM. The GI50 (SK-MEL-28 melanoma) was 1680 nM, the TGI (SK-MEL-28 melanoma) was 3490 nM and the GI50 (786-0 renal) was 1320 nM. It also gave a TGI (786-0 renal) of 2940 nM, a GI50 (PC-3 prostate) of 1580 nM and a TGI (PC-3 prostate) of 3390 nM. For the same molecule, the GI50 (DU-145 prostate) was 1750 nM, the TGI (DU-145 prostate) was 3220 nM and the GI50 (KM12 colon) was 1910 nM. It also gave a TGI (KM12 colon) of 4330 nM, a GI50 (OVCAR-5 ovarian) of 1210 nM and a TGI (OVCAR-5 ovarian) of 2770 nM. It also gave a GI50 (MALME-3M melanoma) of 460 nM, a TGI (MALME-3M melanoma) of 1890 nM and a GI50 (MOLT-4 leukemia) of 305 nM. For the same molecule, the TGI (MOLT-4 leukemia) was 810 nM, the GI50 (OVCAR-4 ovarian) was 1340 nM and the TGI (OVCAR-4 ovarian) was 4710 nM. It also gave a GI50 (SNB-75 CNS) of 1140 nM, a TGI (SNB-75 CNS) of 2410 nM and a GI50 (TK-10 renal) of 1460 nM. It also gave a TGI (TK-10 renal) of 2950 nM, a GI50 (RPMI-8226 leukemia) of 1420 nM and a TGI (RPMI-8226 leukemia) of 3870 nM. The GI50 (RXF 393 renal) was 379 nM, the TGI (RXF 393 renal) was 1340 nM and the GI50 (U251 CNS) was 1160 nM. The TGI (U251 CNS) was 2700 nM, the GI50 (M14 melanoma) was 466 nM and the TGI (M14 melanoma) was 1640 nM. It also gave a GI50 (UO-31 renal) of 1570 nM, a TGI (UO-31 renal) of 3110 nM and a GI50 (COLO 205 colon) of 1550 nM. The TGI (COLO 205 colon) was 3070 nM, the GI50 (IGROV1 ovarian) was 213 nM and the TGI (IGROV1 ovarian) was 476 nM. The GI50 (SK-MEL-5 melanoma) was 176 nM, the TGI (SK-MEL-5 melanoma) was 329 nM and the GI50 (MDA-MB-231 breast) was 1520 nM. It also gave a TGI (MDA-MB-231 breast) of 3380 nM, a GI50 (HS 578T breast) of 2060 nM and a TGI (HS 578T breast) of 7030 nM. It also gave a GI50 (HCT-116 colon) of 272 nM, a TGI (HCT-116 colon) of 731 nM and a GI50 (SNB-19 CNS) of 2330 nM. For the same molecule, the TGI (SNB-19 CNS) was 7190 nM, the GI50 (T-47D breast) was 1860 nM and the TGI (T-47D breast) was 4190 nM. For the same molecule, the GI50 (A549 NSCLC) was 1760 nM, the TGI (A549 NSCLC) was 4240 nM and the GI50 (NCI-H23 lung) was 252 nM. For the same molecule, the TGI (NCI-H23 lung) was 832 nM, the GI50 (SF-268 CNS) was 1220 nM and the TGI (SF-268 CNS) was 2950 nM. The GI50 (HOP-92 NSCLC) was 938 nM, the TGI (HOP-92 NSCLC) was 2630 nM and the GI50 (HOP-62 NSCLC) was 1580 nM. The TGI (HOP-62 NSCLC) was 3300 nM, the GI50 (UACC-62 melanoma) was 430 nM and the TGI (UACC-62 melanoma) was 1590 nM.
`COc1ccc(Nc2nc3ccc(C(F)(F)F)cc3nc2C(=O)O)cc1OC` gave a TGI (HL-60(TB) leukemia) of 64100 nM, a TGI (NCI-H226 lung) of over 100000 nM and a TGI (NCI-H522 lung) of 84600 nM. The TGI (UACC-257 melanoma) was over 100000 nM, the TGI (MDA-MB-435) was 82500 nM and the TGI (HCT-15 colon) was over 100000 nM. It also gave a TGI (HT29 colon) of over 100000 nM, a TGI (CAKI-1 renal) of over 100000 nM and a TGI (SW-620 colon) of over 100000 nM. The TGI (LOX IMVI melanoma) was over 100000 nM, the TGI (SR leukemia) was 58000 nM and the TGI (NCI/ADR-RES ovarian) was 57500 nM. It also gave a TGI (ACHN renal) of over 100000 nM, a TGI (MCF7 breast) of over 100000 nM and a TGI (OVCAR-3 ovarian) of 40800 nM. The TGI (BT-549 breast) was 71500 nM, the TGI (NCI-H460 lung) was 54600 nM and the TGI (OVCAR-8 ovarian) was over 100000 nM. The TGI (SF-295 CNS) was 77600 nM, the TGI (MDA-N) was over 100000 nM and the TGI (SK-MEL-2 melanoma) was 35500 nM. For the same molecule, the TGI (HCC-2998 colon) was 43700 nM, the TGI (SN12C renal) was over 100000 nM and the TGI (K-562 leukemia) was over 100000 nM. It also gave a TGI (A498 renal) of 86600 nM, a TGI (SK-MEL-28 melanoma) of over 100000 nM and a TGI (786-0 renal) of over 100000 nM. It also gave a TGI (PC-3 prostate) of 94600 nM, a TGI (DU-145 prostate) of over 100000 nM and a TGI (KM12 colon) of 33700 nM. It also gave a TGI (OVCAR-5 ovarian) of over 100000 nM, a TGI (MALME-3M melanoma) of over 100000 nM and a TGI (MOLT-4 leukemia) of 43500 nM. For the same molecule, the TGI (OVCAR-4 ovarian) was over 100000 nM, the TGI (SNB-75 CNS) was 81500 nM and the TGI (RXF 393 renal) was over 100000 nM. The TGI (U251 CNS) was over 100000 nM, the TGI (UO-31 renal) was 43700 nM and the TGI (COLO 205 colon) was over 100000 nM. For the same molecule, the TGI (IGROV1 ovarian) was over 100000 nM, the TGI (SK-MEL-5 melanoma) was 48300 nM and the TGI (MDA-MB-231 breast) was over 100000 nM. For the same molecule, the TGI (EKVX NSCLC) was over 100000 nM, the TGI (HS 578T breast) was 96600 nM and the TGI (HCT-116 colon) was 80000 nM. For the same molecule, the TGI (SNB-19 CNS) was over 100000 nM, the TGI (NCI-H23 lung) was 58600 nM and the TGI (SF-268 CNS) was over 100000 nM. It also gave a TGI (HOP-62 NSCLC) of 75400 nM and a TGI (UACC-62 melanoma) of over 100000 nM.
